Here are results for four compounds from patent publication US4520023A, “3-(3-Iodopropargyl)-benzo-1,2,3-triazin-4-ones, and their use in microbicidal agents” (Bayer Aktiengesellschaft, priority 1982, dated 1985).

≈ marks a conversion by molar mass, not a printed value. Like-named read-outs stand apart in the source and are kept apart here.

One test concerns Alternaria tenuis. The test is described as follows: Agar MIC determination, Alternaria tenuis. Type of test: cell-based. Conditions: Alternaria alternata, 336 h, beerwort/peptone agar, 28° C., 2 weeks. As for the experimental part: (§1) Active compounds according to the invention are added, in concentrations of 0.1 mg/liter to 5,000 mg/liter, to an agar prepared from beerwort and peptone. After storage at 28° C. and 60 to 70% relative atmospheric humidity for 2 weeks, the MIC is determined.

The next test concerns Aspergillus niger. The test is described as follows: Agar MIC determination, Aspergillus niger. Type of test: cell-based. Conditions: 336 h, beerwort/peptone agar, 28° C., 2 weeks. As for the experimental part:
as §1

The next test has as its system Aureobasidium pullulans. Nature of the test: Agar MIC determination, Aureobasidium pullulans. Type of test: cell-based. Conditions: 336 h, beerwort/peptone agar, 28° C., 2 weeks. As for the experimental part: as §1
In a further test the test system is Chaetomium globosum. The test is described as follows: Agar MIC determination, Chaetomium globosum. Type of test: cell-based. Conditions: 336 h, beerwort/peptone agar, 28° C., 2 weeks. The procedure: as §1
In a further test the test system is Coniophora cerebella. Nature of the test: Agar MIC determination, Coniophora cerebella. Type of test: cell-based. Conditions: 336 h, beerwort/peptone agar, 28° C., 2 weeks. The procedure:
as §1

A further test has as its system Lentinus tigrinus. Nature of the test: Agar MIC determination, Lentinus tigrinus. It is filed as cell-based. Conditions: 336 h, beerwort/peptone agar, 28° C., 2 weeks. The procedure: as §1
The next test deals with Penicillium glaucum. The test is described as follows: Agar MIC determination, Penicillium glaucum. It is filed as cell-based. Conditions: 336 h, beerwort/peptone agar, 28° C., 2 weeks. As for the experimental part:
as §1

The subject of the next test is Sclerophoma pityophila. Nature of the test: Agar MIC determination, Sclerophoma pityophila. Type of test: cell-based. Conditions: Sydowia polyspora, 336 h, beerwort/peptone agar, 28° C., 2 weeks. As for the experimental part: as §1
The subject of the next test is Trichoderma viride. Nature of the test: Agar MIC determination, Trichoderma viride. Type of test: cell-based. Conditions: 336 h, beerwort/peptone agar, 28° C., 2 weeks. The procedure:
as §1

The test system of the next test is slime organisms. The test is described as follows: Action against slime organisms in Allens nutrient solution. It is filed as cell-based. Conditions: 504 h. As for the experimental part: Compounds according to the invention, dissolved in acetone, are used in concentrations of in each case 0.1 to 100 mg/liter in Allens nutrient solution (Arch. Mikrobiol. 17, 34 to 53 (1952)) containing, in 4 liters of sterile water, 0.2 g of ammonium chloride, 4.0 g of sodium nitrate, 1.0 g of dipotassium hydrogen phosphate, 0.2 g of calcium chloride, 2.05 g of magnesium sulphate, 0.02 g of iron chloride and 1% of caprolactam. Shortly beforehand, the nutrient solution is infected with slime organisms (about 10^6 germs/ml) which have been isolated from the spinning water circulations used in the preparation of polyamide.

Test [1] deals with fungi (Aspergillus niger, Aureobasidium pullulans, Alternaria speciales, Penicillium citrinum, Stachybotrys atra, Paecilomyces varioti, Cladosporium herbarum …). The test is described as follows: Testing of paint films for resistance to mould (Report 219, Defense Standards Laboratories). Conditions: 1.5 to 2% (or more) based on total solids content. As for the experimental part: The test is carried out in accordance with Report 219 of the Defense Standards Laboratories Maibyrnong/Australia, as follows: smooth cardboard is coated on both sides with the product to be tested and is dried at room temperature for 8 days. For ageing, part of the coating is kept in running water at 24° C. for 24 hours, part is aerated with fresh air of 40° to 60° C. for 8 days, and part is exposed to a dry Xenon test for 110 hours. 5×5 cm sections of the test pieces thus treated are placed individually in Petri dishes on a glucose nutrient medium, and are contaminated with a spore suspension of the following fungi: Aspergillus niger, Aureobasidium pullulans, Alternaria speciales, Penicillium citrinum, Stachybotrys atra, Paecilomyces varioti, Cladosporium herbarum, Aspergillus ustus or Aspergillus flavus.
The contaminated dishes are kept at 28°-30° C. and 90-95% relative atmospheric humidity, and are evaluated after 3 weeks. Paint films are regarded as mould-resistant if the test pieces remain free from fungi after this test.
A commercially available, alkaline emulsion paint based on polyvinyl acetate is tested for mould resistance by the test method described above.

Setting [2] is: slime organisms about 10^6 germs/ml, Allens nutrient solution, room temperature, 3 weeks, read-out: MIC.

With `O=c1c2ccccc2nnn1CC#CI` [Active compound A, 3-(3-Iodopropargyl)-benzo-1,2,3-triazin-4-one], the MIC against Alternaria tenuis is 5 mg/L (≈ 16.1 µM); against Aspergillus niger, 5 mg/L (≈ 16.1 µM); in the test with Aureobasidium pullulans it was 5 mg/L (≈ 16.1 µM); in the test on Chaetomium globosum it was less than 20 mg/L; with Coniophora cerebella, 0.5 mg/L (≈ 1.61 µM); against Lentinus tigrinus it was 2 mg/L (≈ 6.43 µM). For the same compound, the MIC with Penicillium glaucum amounted to 5 mg/L (≈ 16.1 µM); in the test with Sclerophoma pityophila, 3.5 mg/L (≈ 11.3 µM); in the test on Trichoderma viride, 10 mg/L (≈ 32.1 µM); with slime organisms (read-out: MIC in mg/liter), 5 mg/L (≈ 16.1 µM). Besides, in test [1] (alkaline polyvinyl acetate emulsion paint, 3 weeks, 28°-30° C.), the “mould resistance of paint films” value is listed as “very good mould-resistant paint films”. Moreover, the “mould resistance of paint films after ageing” value in test [1] (films first subjected to running water 24 hours, fresh air 40° to 60° C. 8 days, or dry Xenon test 110 hours) was “very good mould-resistant paint films”.

Turning to `O=c1c2cc([N+](=O)[O-])ccc2nnn1CC#CI` [Active compound B, 3-(3-Iodopropargyl)-6-nitro-benzo-1,2,3-triazin-4-one], the MIC was less than 20 mg/L with Aspergillus niger, less than 20 mg/L in the test with Chaetomium globosum, less than 20 mg/L with Penicillium glaucum and 20 mg/L (≈ 56.2 µM) in the test on slime organisms (setting [2]).

Regarding `O=c1c2ccc(Cl)cc2nnn1CC#CI` [Active compound C, 3-(3-Iodopropargyl)-7-chloro-benzo-1,2,3-triazin-4-one], the MIC in the test with Aspergillus niger was less than 20 mg/L; in the test with Chaetomium globosum, less than 20 mg/L; in the test with Penicillium glaucum, less than 20 mg/L; with slime organisms (setting [2]), 30 mg/L (≈ 86.8 µM).

Take `CCCCNC(=O)OCC#CI` [Active compound D, iodopropargyl N-butyl-carbamate, reference compound]: the MIC against Aspergillus niger amounted to 80 mg/L (≈ 285 µM); in the test with Chaetomium globosum it was 60 mg/L (≈ 213 µM); against Penicillium glaucum, 40 mg/L (≈ 142 µM); with Trichoderma viride, 140 mg/L (≈ 498 µM).
